{"source": "patent US20240108722A1", "about": "“TUMOR-INFILTRATING LYMPHOCYTES WITH MEMBRANE BOUND INTERLEUKIN 15 AND USES THEREOF” (OBSIDIAN THERAPEUTICS, INC., priority 2021, published 2024)", "system": "regulated mbIL15 TILs", "test": "ACZ regulation of IL15 expression and signaling, phospho-flow cytometry-based assay", "type": "cell-based, human", "conditions": "18 hours", "method": "Pre-REP TILs were prepared similarly to the methods of Example 1-3 and 9, and unengineered and mbIL15 TIL generated accordingly as described in Examples 1-3 and 9. Engagement of the IL15 signaling pathway results in phosphorylation of signal transducers downstream, including the transcription factor protein STAT5 and ribosomal protein S6. […] Next, the regulated mbIL15 TILs were regulated for 18 hours in the presence of a range of concentrations of ACZ including 0.1, 1, 2.5, 5, 10, 25, 100 as well as vehicle control. The regulated mbIL15 TILs were then collected for staining and FACS analysis.\nBriefly, cells were stained using antibodies for CD3, CD4, CD8, IL15 and a Live/Dead marker. Then cells were fixed in 2% formaldehyde (BD Cytofix) and permeabilized using a methanol-based buffer (BD Phospho Perm III Buffer) before staining with antibodies specific for phosphorylated STAT5 (Biolegend) and S6 (Cell Signaling Technology). Cells were acquired on the BD Symphony and analyzed using FlowJo software.\nWith increasing concentrations of ACZ expression of mbIL15 also increases, plateauing at around 10-25 μM of ACZ. FIG. 9A. […] FIGS. 9B-E and FIG. 10.", "data": [{"smiles": "CC(=O)Nc1nnc(S(N)(=O)=O)s1", "note": "[ACZ, acetazolamide]", "values": [{"measurement": "staining intensity of pSTAT5 and pS6", "setting": "0.1-100 μM ACZ, regulated mbIL15 TILs", "value": "increased with higher concentrations of ACZ"}, {"measurement": "ACZ concentration at which mbIL15 expression plateaus", "setting": "regulated mbIL15 TILs from four human donors", "value": "10 to 25", "unit": "µM"}]}]}
